Source: PubChem BioAssay (NCI)
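Cultured in 96-well plates, cells were exposed to test compound for 48 hours across five concentrations. The concentration for full growth arrest is given as TGI.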

How the values were obtained:
Assay in all cases: DTP human tumour cell line panel, 48 h
RXF 393 renal = test system: RXF 393 renal
IGROV1 ovarian = test system: IGROV1 ovarian
MCF7 breast = test system: MCF7 breast
HOP-92 NSCLC = test system: HOP-92 NSCLC
KM12 colon = test system: KM12 colon
TK-10 renal = test system: TK-10 renal
SF-268 CNS = test system: SF-268 CNS
T-47D breast = test system: T-47D breast
NCI-H522 lung = test system: NCI-H522 lung
CAKI-1 renal = test system: CAKI-1 renal
SK-MEL-2 melanoma = test system: SK-MEL-2 melanoma
HCC-2998 colon = test system: HCC-2998 colon
HOP-62 NSCLC = test system: HOP-62 NSCLC
MDA-MB-435 = test system: MDA-MB-435
HL-60(TB) leukemia = test system: HL-60(TB) leukemia

Row | Structure (SMILES) | TGI (RXF 393 renal) | TGI (IGROV1 ovarian) | TGI (MCF7 breast) | TGI (HOP-92 NSCLC) | TGI (KM12 colon) | TGI (TK-10 renal) | TGI (SF-268 CNS) | TGI (T-47D breast) | TGI (NCI-H522 lung) | TGI (CAKI-1 renal) | TGI (SK-MEL-2 melanoma) | TGI (HCC-2998 colon) | TGI (HOP-62 NSCLC) | TGI (MDA-MB-435) | TGI (HL-60(TB) leukemia)
1 | C=CCSC1=N/C(=C\c2cccs2)C(=O)N1CC=C | 64.2 µM | > 100 µM | > 100 µM | 57 µM | > 100 µM | > 100 µM | > 100 µM | 69.3 µM | > 100 µM | > 100 µM | > 100 µM | > 100 µM | > 100 µM | > 100 µM | 
2 | c1cc2c(c(NC3=NCCO3)c1)CCC2 | > 100 µM | > 100 µM | > 100 µM | > 100 µM | > 100 µM | > 100 µM | > 100 µM | > 100 µM | > 100 µM | > 100 µM | > 100 µM |  | > 100 µM | > 100 µM | > 100 µM
3 | CCN(CC)c1ccc2cc(C(=O)Nc3ccccc3)c(=N)oc2c1 | > 100 µM | > 100 µM | > 100 µM | > 100 µM | > 100 µM | > 100 µM | > 100 µM | > 100 µM |  | > 100 µM | > 100 µM | > 100 µM | > 100 µM | > 100 µM | > 100 µM
4 | Cc1ccc(S(=O)(=O)N2CCSCCN(S(=O)(=O)c3ccc(C)cc3)CCN(S(=O)(=O)c3ccc(C)cc3)CC2)cc1 | > 100 µM | > 100 µM | > 100 µM | 9.06 µM |  |  | > 100 µM | > 100 µM |  |  | 79.9 µM | > 100 µM | 69 µM | > 100 µM | > 100 µM
5 | CN(NC(=O)c1cccs1)C1=NCCCCN1 | > 100 µM | > 100 µM | > 100 µM | > 100 µM | > 100 µM | > 100 µM | > 100 µM | > 100 µM | > 100 µM |  | > 100 µM | > 100 µM | > 100 µM | > 100 µM | > 100 µM
6 | Clc1cc(Cl)cc(C2ON=C(c3ccccc3)N2C23CC4CC(CC(C4)C2)C3)c1 (configuration not stated) | > 10 µM | > 10 µM | > 10 µM | > 10 µM | > 10 µM | > 10 µM | > 10 µM | > 10 µM | > 10 µM | > 10 µM | > 10 µM | > 10 µM | > 10 µM | > 10 µM | 
7 | Cc1nc(N/N=C/c2ccccc2Cl)[nH]c(=O)c1CCO | 69.9 µM | > 100 µM | > 100 µM | 57.3 µM | > 100 µM | > 100 µM | > 100 µM | > 100 µM | 34.4 µM |  |  | > 100 µM | 50.4 µM | > 100 µM | > 100 µM
8 | Cc1nc2c(=O)n(-c3ccccc3)c3ccccc3c2o1 | > 100 µM | > 100 µM | > 100 µM | > 100 µM | > 100 µM | > 100 µM | > 100 µM | > 100 µM |  | > 100 µM | > 100 µM | > 100 µM | > 100 µM | > 100 µM | > 100 µM
9 | CC(=O)CSc1c(-c2ccccc2)c(=O)n(-c2ccccc2)c(=S)n1-c1ccccc1 |  | > 100 µM | > 100 µM | > 100 µM | > 100 µM | > 100 µM | > 100 µM | > 100 µM | > 100 µM | > 100 µM | > 100 µM |  | > 100 µM | > 100 µM | > 100 µM
10 | COc1ccc(OCc2ccc3nc(-c4ccccc4)c(Cl)nc3c2)cc1 |  | > 100 µM | > 100 µM | 46.7 µM | > 100 µM | 55.3 µM | > 100 µM | > 100 µM | 40.5 µM | 51.4 µM | > 100 µM | > 100 µM | 28.6 µM | > 100 µM | 45.9 µM
11 | CCOC(=O)CSc1nnc2cc(CN3CCCC3)c(-c3ccc(Cl)cc3)nn12 | > 100 µM | > 100 µM | > 100 µM | > 100 µM | > 100 µM | > 100 µM | > 100 µM | > 100 µM | > 100 µM | > 100 µM | > 100 µM |  | > 100 µM | > 100 µM | > 100 µM
12 | COc1cc(S(=O)(=O)Nc2ccc(-c3csc(N)n3)cc2)ccc1Cl | 33.8 µM |  | 29.9 µM | 39.5 µM |  |  | 76.6 µM | 23 µM | 42.4 µM | 45 µM | 35 µM |  |  | 46.9 µM | 43.6 µM
13 | CC(=O)Nc1cc2c3c(c1)CCCN3CCC2 | > 100 µM | > 100 µM | > 100 µM | > 100 µM | > 100 µM | > 100 µM |  | > 100 µM | > 100 µM | > 100 µM | > 100 µM | > 100 µM |  | > 100 µM | > 100 µM
14 | NCCN1C(=O)CN=C(c2ccc(Cl)cc2)c2cc(Cl)ccc21 | 24.5 µM | 27.1 µM |  | 39.7 µM | 31.3 µM | 30.5 µM | 30.4 µM | 59.3 µM | 37.3 µM | 32 µM | 31.8 µM | 31.8 µM | 31.8 µM | 28.3 µM | 37.7 µM
15 | c1ccc(CNCCCCNCCCNCc2ccccc2)cc1 | 32.7 µM | 26.7 µM | > 100 µM | 25.3 µM | 40.5 µM | 77.4 µM | 51.8 µM | > 100 µM | 31 µM | 40.3 µM | > 100 µM | 31.3 µM | 60.8 µM | 34.7 µM | 
16 | CCOC(=O)c1cnc2n(c1=N)[C@H]1CCCC[C@@H]1N2 | > 100 µM | > 100 µM | > 100 µM | > 100 µM | > 100 µM |  | > 100 µM | > 100 µM | > 100 µM | > 100 µM | > 100 µM | > 100 µM |  | > 100 µM | > 100 µM
17 | CCOc1ccc(N/C(Cl)=C(Cl)\C(=C(\Nc2ccc(OCC)cc2)n2nnc3ccccc32)[N+](=O)[O-])cc1 | 5.39 µM | 5.33 µM | 24.6 µM | 5.56 µM | > 57.6 µM | 17.1 µM | 32.1 µM | 29.1 µM | 2.86 µM | 3.49 µM | 35.5 µM | 46.6 µM | > 100 µM | 23.7 µM | 
